Data reported in PMC3875237, “Fragment-based design for the development of N-domain-selective angiotensin-1-converting enzyme inhibitors” (Clinical Science (London, England : 1979), 2013).
Where two headings read alike, the source gives them in different places.

Key:
[1] = biological target: T1, ACE N-domain mutant Y369F (Homo sapiens, UniProt P12821, Y398F); experiment: continuous fluorogenic (Abz)-FRK(Dnp)P-OH ACE inhibition assay, N-domain S2 mutant Y369F; type: biochemical
T1 construct: N-domain S2 mutants Y369F, R381E and YR/FE
Procedure: (§1) Parent molecule RXP407 and compound 33RE were dissolved in sterile distilled water to yield stock solutions of 10 mM and subsequently serially diluted in assay buffer (50 mM Hepes, pH 6.8, 200 mM NaCl and 10 μM ZnSO4). Assays were performed on wild-type N-domain, C-domain and N-domain S2 mutants Y369F, R381E and YR/FE as described previously. Briefly, 40 nM enzyme was incubated with an equivolume amount of an appropriate concentration range of phosphinic inhibitor at ambient temperature for 5 min. Enzyme-inhibitor solutions were then divided into aliquotes in triplicate 20 μl volumes followed by the addition of 280 μl of fluorogenic substrate (Abz)-FRK(Dnp)P-OH (in assay buffer) to yield a final substrate concentration of 4 or 8 μM. Residual enzyme activity was monitored continuously at λex=320 nm and λem=420 nm using a fluorescence spectrophotometer (Cary Eclipse, Varian). Initial change of fluorescence over time was converted into arbitrary rate units and inhibitor-binding affinities determined using the Dixon method.
(§2) Assessment of inhibitor potential was carried out using a continuous fluorogenic assay (Abz)-FRK(Dnp)P assay.

[2] = biological target: T2, ACE N-domain mutant R381E (Homo sapiens, UniProt P12821, R410E); experiment: continuous fluorogenic (Abz)-FRK(Dnp)P-OH ACE inhibition assay, N-domain S2 mutant R381E; type: biochemical
T2 construct: N-domain S2 mutants Y369F, R381E and YR/FE
Procedure: as §1, §2

[3] = biological target: T3, ACE N-domain double mutant YR/FE (Homo sapiens, UniProt P12821, R410E/Y398F); experiment: continuous fluorogenic (Abz)-FRK(Dnp)P-OH ACE inhibition assay, N-domain S2 double mutant YR/FE; type: biochemical
T3 construct: N-domain S2 mutants Y369F, R381E and YR/FE
Procedure: as §1, §2

[4] = biological target: T4, ACE N-domain (wild-type) (Homo sapiens, UniProt P12821); experiment: continuous fluorogenic (Abz)-FRK(Dnp)P-OH ACE inhibition assay, wild-type N-domain; type: biochemical; conditions: for Fold selectivity Ki (C/N): C-domain Ki / wild-type N-domain Ki
T4 construct: Assays were performed on wild-type N-domain, C-domain and N-domain S2 mutants; made in house; host or cells: CHO (Chinese-hamster ovary) cells
Procedure: as §1, §2

[5] = biological target: T4, ACE N-domain (wild-type); parameters: method as in PMID 10200262; conditions: N-domain over C-domain; cited from earlier work

T1 sequence (P12821 40-624 Y398F): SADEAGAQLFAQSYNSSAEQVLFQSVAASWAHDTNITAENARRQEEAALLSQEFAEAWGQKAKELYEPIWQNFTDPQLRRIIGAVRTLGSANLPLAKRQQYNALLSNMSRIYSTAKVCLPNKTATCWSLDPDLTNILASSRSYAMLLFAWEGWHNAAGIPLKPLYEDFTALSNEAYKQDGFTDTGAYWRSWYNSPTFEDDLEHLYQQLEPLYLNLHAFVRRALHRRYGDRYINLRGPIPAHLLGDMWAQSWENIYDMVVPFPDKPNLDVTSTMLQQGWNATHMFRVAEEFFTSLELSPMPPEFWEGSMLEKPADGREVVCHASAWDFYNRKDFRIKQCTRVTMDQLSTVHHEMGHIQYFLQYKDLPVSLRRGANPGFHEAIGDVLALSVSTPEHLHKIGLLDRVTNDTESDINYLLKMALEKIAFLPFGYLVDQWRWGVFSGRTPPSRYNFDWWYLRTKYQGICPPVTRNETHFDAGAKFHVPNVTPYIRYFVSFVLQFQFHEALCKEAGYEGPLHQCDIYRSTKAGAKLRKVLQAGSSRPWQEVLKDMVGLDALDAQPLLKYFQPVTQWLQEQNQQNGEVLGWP
T3 sequence (P12821 40-624 Y398F/R410E): as the sequence (P12821 40-624 Y398F) above, with R371E counted along it
T2 sequence (P12821 40-624 R410E): as the sequence (P12821 40-624 Y398F) above, with F359Y, R371E counted along it
T4 sequence (P12821 40-624 limits assumed): as the sequence (P12821 40-624 Y398F) above, with F359Y counted along it

SMILES	Fold selectivity Ki (C/N) ([1]; C-domain Ki / Y369F mutant Ki) [fold]	Ki ([1]; N-domain mutant Y369F, means±S.E.M.) [nM]	decrease in binding affinity compared with wild-type ([1]; Y369F vs wild-type N-domain) [fold]	Fold selectivity Ki (C/N) ([2]; C-domain Ki / R381E mutant Ki) [fold]	Ki ([2]; N-domain mutant R381E, means±S.E.M.) [nM]	decrease in binding affinity compared with wild-type ([2]; R381E vs wild-type N-domain) [fold]	Fold selectivity Ki (C/N) ([3]; C-domain Ki / YR/FE mutant Ki) [fold]	Ki ([3]; N-domain double mutant YR/FE, means±S.E.M.) [nM]	decrease in binding affinity compared with wild-type ([3]; YR/FE vs wild-type N-domain) [fold]	Ki [4] [nM]	Fold selectivity Ki (C/N) [4] [fold]	N-selectivity [5]	Ki ([4]; wild-type N-domain, Dixon method, means±S.E.M., read-out: Ki) [nM]
C[C@H](CP(=O)(O)[C@H](Cc1ccccc1)NC(=O)[C@@H](N)Cc1nnn[nH]1)C(=O)N[C@H](C)C(N)=O [33RE]	26	404 ± 17.3	36	120	87 ± 6.29	8	4	2790 ± 156	250	11.2 ± 0.74	927		
CC(=O)NC(CC(=O)O)C(=O)NC(Cc1ccccc1)P(=O)(O)CC(C)C(=O)NC(C)C(N)=O (centres unmarked) [RXP407, reference compound]											2896	approximately three orders of magnitude	21 ± 0.27
